Experimental data: patent publication US8067422B2, “Crystal form of phenylamino pyrimidine derivatives” (Natco Pharma Limited, priority 2008, dated 2011)
Entries after “also recorded” stand apart in the source; their conditions may differ. Where a name gives a salt, the structure may show the parent alone.

Key:
[1] = Heat stability of Form-III crystal form (XRPD after heating); assay type: physicochemical; settings: for Polymorph form detected after heating: 6 hours, XRPD
Description: Pure Form-III crystal form (1 gm) prepared by the present process was placed in a boiling tube and heated gradually in oil bath. Then the substance was examined by XRPD.

[2] = Thermodynamic stability of crystal forms at room temperature; assay type: physicochemical
Description: This is indicative of the greater stability of the Form-III crystal form.

[3] = Stability of Form-III crystal form under accelerated stress conditions in bulk and formulated capsule; assay type: physicochemical
[4] = test system: MDAMB231 breast cancer cells; experiment: Matrigel invasion assay (modified Boyden chamber), MDA-MB-231; assay type: cell-based
Description: (§1) The in vitro invasiveness of 4910, 5310 and U87 glioma cells and MDAMB231 and ZR71 breast cancer cells in the presence of specified concentrations of compounds were assessed using a modified Boyden chamber assay. Cells were treated with these compounds for 48 h. 1×10^6 cells were suspended in 600 μl of serum-free medium supplemented with 0.2% BSA and placed in the upper compartment of the transwell chambers (Corning Costar Fischer Scientific Cat #07-200-158, Pittsburgh Pa.) coated with Matrigel (0.7 mg/ml). The lower compartment of the chamber was filled with 200 μl of serum medium and the cells were allowed to migrate for 24 h. After incubation, the cells were fixed and stained with Hema-3 and quantified as previously described (Mohanam et al. 1993). The migrated cells were imaged microscopically to determine the reduction in invasiveness induced by the compounds of this invention.

ZR71 breast cancer cells = experiment: Matrigel invasion assay (modified Boyden chamber), ZR-71; assay type: cell-based
Description: as §1

[5] = test system: 4910 human glioma xenograft cells; experiment: Glioma radiation study, nude mice intracranially implanted with 4910 cells; assay type: in vivo; settings: of 10 animals; without radiation; day 40 post implantation
Description: Nude mice were intracranially implanted with 4910 human glioma xenograft cells (1×10^6 cells). Ten days after implantation mice were treated with AN019, AN024 or temozolomide with or without radiation (5 Gy/week). The experiment was terminated at day 40 post implantation.

4910 glioma cells = experiment: Matrigel invasion assay (modified Boyden chamber), 4910; assay type: cell-based, human
Description: as §1

5310 glioma cells = experiment: Matrigel invasion assay (modified Boyden chamber), 5310; assay type: cell-based
Description: as §1

U87 glioma cells = experiment: Matrigel invasion assay (modified Boyden chamber), U87; assay type: cell-based
Description: as §1

[6] = test system: K562 luciferase expressing cells; experiment: Leukemic survival study in nude mice implanted with K562 luciferase expressing cells; assay type: in vivo
Description: K562 luciferase expressing cells were implanted intraperitoneally into nude mice; the mice were scanned using the xenogeny IVIS image station after ip injections of luciferin does determine implantations. Drug treatment was started as in previous studies day 15 after implantation. The animals were given treatment till day 42, after which drug treatment was stopped and survival of the animals determined as per the animal care regulations. […] Drug treatment was withdrawn on day 42 post implantation and survival of animals determined.

K562 cells [7] = experiment: Spleenic enlargement and spleen Crk immunocytochemistry in K562 implanted nude mice; assay type: in vivo; settings: ip injections
Description: Control mice were sacrificed on day 42 when secondary leukemia symptoms were observed, such as abdominal swelling and lack of circulation in the peripherals causing loss of digits with red spots under the skin surface. Spleen and any secondary tumors were harvested, fixed in formaldehyde and paraffin embedded as per standard protocols. Paraffin section were obtained and processed for immunocytochemistry. The rehydrated sections were treated with 0.3% H2O2 to inactivate any native peroxidases prior to immuno-probing. The sections were blocked with filter sterilized (0.22 μm) 1% BSA-PBS at room temperature for 1 h. Following blocking, the sections were immuno-probed with a human specific anti-Crk monoclonal primary antibody raised in rabbit against a synthetic peptide corresponding to residues in the SH2 domain, near the N-term of human CrkL protein (Abcam, Cambridge, Mass., USA) in 1% BSA-PBS overnight. Secondary antibody (anti-rabbit) conjugated to HRP was used to detect the presence of primary antibody. The sections were briefly rinsed three times in PBS solution after immuno-probing with secondary antibody, and DAB HRP substrate was added per manufacture's instructions (Sigma St Louis Mo. USA). The reaction was allowed to proceed until sharp contrast between positive and negative controls was observed. For negative controls primary antibody were eliminated. Leukemic mice spleen served as positive controls.
Mice were sacrificed after a decrease in LGI was observed and spleen harvested. […] Control mice also developed random subcutaneous tumors showing Crk expression, indicative of the presence of K562 cells.

K562 cells [8] = experiment: Anti-CML activity in nude mice implanted with K562 cells (leukemia growth index); assay type: in vivo; settings: ip injections
Description: Nude mice (nu/nu) were implanted with K562 cells (1×10^6) via tail vein.
Blood was drawn via the tail vein. Quantitative analysis of LGI was graphically represented.

[9] = drug treatment withdrawn on day 42

SMILES: Cc1ccc(NC(=O)c2cc(C(F)(F)F)cc(C(F)(F)F)c2)cc1Nc1nccc(-c2cccnc2)n1 [Form-III, (3,5-bis trifluoromethyl)-N-[4-methyl-3-(4-pyridin-3yl-pyrimidin-2ylamino)-phenyl]-benzamide]
- Polymorph form detected after heating ([1]; 110° C.): Form-III
- Polymorph form detected after heating ([1]; 120° C.): Form-III
- Polymorph form detected after heating ([1]; 130° C.): Form-III
- Heat stability ([1]; heated at 130° C. for 6 hours): non-metastable and stable; also recorded: stable to heat
- Stability of crystal form [2]: thermodynamically stable
- Polymorph content of bulk compound of formula I, polymorph form detected ([3]; 0 Month at 40 ± 2° C./75 ± 5% RH): Form-III
- Polymorph content of bulk compound of formula I, polymorph form detected ([3]; 1 Month at 40 ± 2° C./75 ± 5% RH): Form-III
- Polymorph content of bulk compound of formula I, polymorph form detected ([3]; 2 Months at 40 ± 2° C./75 ± 5% RH): Form-III
- Polymorph content of bulk compound of formula I, polymorph form detected ([3]; 3 Months at 40 ± 2° C./75 ± 5% RH): Form-III
- Polymorph content of bulk compound of formula I, polymorph form detected ([3]; 6 Months at 40 ± 2° C./75 ± 5% RH): Form-III

SMILES: Cc1ccc(NC(=O)c2cc(C(F)(F)F)cc(C(F)(F)F)c2)cc1Nc1nccc(-c2cccnc2)n1 [Form-I, (3,5-bis trifluoromethyl)-N-[4-methyl-3-(4-pyridin-3yl-pyrimidin-2ylamino)-phenyl]-benzamide]
- Stability of crystal form [2]: metastable

SMILES: Cn1nnc2c(C(N)=O)ncn2c1=O [Temozolomide]
- ±Change in invasion after radiation ([4]; MDA-MB-231): −13%
- +Radiation % Invasion ([4]; MDA-MB-231, with radiation, 48 h treatment): 49%
- −Radiation % Invasion ([4]; MDA-MB-231, without radiation, 48 h treatment): 62%
- ±Change in invasion after radiation (ZR71 breast cancer cells; ZR-71): −5%
- +Radiation % Invasion (ZR71 breast cancer cells; ZR-71, with radiation, 48 h treatment): 65%
- −Radiation % Invasion (ZR71 breast cancer cells; ZR-71, without radiation, 48 h treatment): 70%
- Animals cured / complete absence of intracranial tumours [5]: 3 animals
- ±Change in invasion after radiation (4910 glioma cells; 4910): −22%
- +Radiation % Invasion (4910 glioma cells; 4910, with radiation, 48 h treatment): 73%
- −Radiation % Invasion (4910 glioma cells; 4910, without radiation, 48 h treatment): 95%
- ±Change in invasion after radiation (5310 glioma cells; 5310): +13%
- +Radiation % Invasion (5310 glioma cells; 5310, with radiation, 48 h treatment): 63%
- −Radiation % Invasion (5310 glioma cells; 5310, without radiation, 48 h treatment): 50%
- ±Change in invasion after radiation (U87 glioma cells; U87): +3%
- +Radiation % Invasion (U87 glioma cells; U87, with radiation, 48 h treatment): 93%
- −Radiation % Invasion (U87 glioma cells; U87, without radiation, 48 h treatment): 90%

SMILES: Cc1ccc(NC(=O)c2cc(C(F)(F)F)cc(C(F)(F)F)c2)cc1Nc1nccc(-c2cccnc2)n1 [Form-II, (3,5-bis trifluoromethyl)-N-[4-methyl-3-(4-pyridin-3yl-pyrimidin-2ylamino)-phenyl]-benzamide]
- Stability of crystal form [2]: metastable

SMILES: Cc1ccc(NC(=O)c2ccc(CN3CCN(C)CC3)cc2)cc1Nc1nccc(-c2cccnc2)n1 [Imatinib, Imatinib mesylate, reference compound]
- Blast cell count from blood smears, effectiveness after withdrawal of drug treatment [6, 9]: ineffective
- Leukemic symptoms after treatment withdrawal [6, 9]: reoccurrences of leukemic symptoms
- Mortality ([6]; treatment day 15 to day 42, then withdrawn, 10 animals): mortality on day 55, 56, 57 and 58
- Crk expression in spleen (immunohistochemistry) (K562 cells [7]): few colonies with low to undetectable expression levels of Crk; also recorded: localized expression regions of Crk expression
- Spleenic enlargement (gross observation) (K562 cells [7]): slight spleenic enlargement
- Physiological, phenotypic or behavioral abnormality (K562 cells [8]): no abnormal physiological, phenotypic or behavioral abnormality
